# Reference: patent US20020039567A1, “Methods of treating bone or cartilage conditions by the administration of creatine” (priority 1998, published 2002)
# Experiments:
# [1] = system: osteoblasts (micromass culture); experiment: Mineralization, micromass osteoblast cell culture; assay type: cell-based, rat
# Method: This isolation technique is based on the ability of osteoblasts to migrate from bone onto a substratum. Parietal and frontal calvariae (4 per animal) were aseptically explanted from 6 day-old IcoIbm rats. The calvariae were placed in Tyrode's balanced salt solution, calcium and magnesium free (TESS). The periosteum was enzymatically removed with 0.05% trypsin and 0.02% collagenase A (0.76 U/mg) dissolved in TBSS (40 calvaria/20 ml). The calvariae were shaken for 70 minutes in a waterbath at 37° C. They were washed with TESS and then transferred to 60 mm culture dishes (40 calvariae/dish) containing 5 ml of 0.02% collagenase A (0.76 U/mg) in culture medium BGJb Fitton-Jackson modification and placed in the incubator for 4 hours. The calvariae were then washed with culture medium B supplemented with 10% foetal calf serum (FCS). The calvariae were transferred into 60 mm culture dishes (4 frontal and 4 parietal/dish). The growth medium supplemented with 10% FCS and 50 μg/ml ascorbate was completely changed every 48 hours. The culture was kept for 3 weeks. After 3 weeks the migrated cells were harvested. The dish was washed with TESS, and 5 ml of TESS containing 0.05% trypsin and 0.02% collagenase A (0.76 U/mg) was added. After 1 hour in the incubator, the dish was washed with culture medium BGJb supplemented with 10% FCS. The dishes containing the calvariae and cells were rinsed with serum containing media BGJb. The cells obtained were filtered through a 40 μm nylon mesh to remove bone debris and cell aggregates. The suspended cells were centrifuged at 600 g for 5 minutes. The cell pellet was resuspended in serum containing medium BGJb and centrifuged. The viability of the resuspended cells was examined by the dye exclusion of 0.4% trypan blue, and the cells were counted in a haeinocytometer. The inoculation densities were 2·10^5/10 cm^2 for monolayer and 2·10^5/30 μl for micromasses. The micromass cultures were kept for 1 hour in the incubator before 2 ml growth medium was added. All the cultures were kept at 37° C. in a humidified atmosphere of 5% CO2, 95% air. All culture media were supplemented with 50 μg/ml ascorbate. To analyze the collagen types, 60 μg/ml beta-aminopropionitrile (beta-APN) was added to the culture medium. During cell isolation and inoculation, no ascorbate was used to increase plating efficiency. No antibiotics and no beta-glycerophosphate were added. The media were completely changed every 48 hours (60 mm culture dish 5 ml; 35 mm culture dish 2 ml). The most specific method for detecting calcified matrices is the von Kossa reaction. Silver staining indicates the presence of calcium phosphate aggregated with certain organic acids. Structural details are completely obscured by the dark precipitate. Calcified tissue components are darkened in various shades from light brown to deep black, irrespective of their mineral content. [table]
# [2] = system: osteoblasts (micromass culture); experiment: Mitochondrial activity (MTT conversion), micromass osteoblast cell culture; assay type: cell-based, rat; details: for MTT reaction: 2 weeks vs 1 week
# Method: This isolation technique is based on the ability of osteoblasts to migrate from bone onto a substratum. Parietal and frontal calvariae (4 per animal) were aseptically explanted from 6 day-old IcoIbm rats. The calvariae were placed in Tyrode's balanced salt solution, calcium and magnesium free (TESS). The periosteum was enzymatically removed with 0.05% trypsin and 0.02% collagenase A (0.76 U/mg) dissolved in TBSS (40 calvaria/20 ml). The calvariae were shaken for 70 minutes in a waterbath at 37° C. They were washed with TESS and then transferred to 60 mm culture dishes (40 calvariae/dish) containing 5 ml of 0.02% collagenase A (0.76 U/mg) in culture medium BGJb Fitton-Jackson modification and placed in the incubator for 4 hours. The calvariae were then washed with culture medium B supplemented with 10% foetal calf serum (FCS). The calvariae were transferred into 60 mm culture dishes (4 frontal and 4 parietal/dish). The growth medium supplemented with 10% FCS and 50 μg/ml ascorbate was completely changed every 48 hours. The culture was kept for 3 weeks.
# After 3 weeks the migrated cells were harvested. The dish was washed with TESS, and 5 ml of TESS containing 0.05% trypsin and 0.02% collagenase A (0.76 U/mg) was added. After 1 hour in the incubator, the dish was washed with culture medium BGJb supplemented with 10% FCS. The dishes containing the calvariae and cells were rinsed with serum containing media BGJb. […] The viability of the resuspended cells was examined by the dye exclusion of 0.4% trypan blue, and the cells were counted in a haeinocytometer. […]
# Originally, Mosmann, 1983 described the general principle involved in the detection of cell growth/cell death as indicated by the conversion of the tetrazolium salt (MTT) to the colored formazan by mitochondrial dehydrogenases. The concentration of this can then be measured spectrophotoinetrically. […]
# 6. The absorbance of the supernatant (3 aliquots/dish) was read at 550 nm versus DMSO.
# If the absorbance was higher than 1, the samples were diluted with DMSO.
smiles,measurement,setting,value
CN(CC(=O)O)C(=N)N [creatine],mineralized area (FIG. 4),"[1]; 10 mM creatine vs control, 2 weeks, p<0.00025",significantly more mineralization
same,mineralized area (FIG. 4),"[1]; 10 mM creatine vs control, 3 weeks, p<0.0035",significantly higher
same,mineralization (FIG. 4),"[1]; 10 mM creatine, 3 weeks vs 2 weeks, p<0.0015",significantly higher mineralization
same,mineralized area (FIG. 4),"[1]; 20 mM creatine vs control, 2 weeks, p<0.00025",significantly more mineralization
same,mineralized area (FIG. 4),"[1]; 20 mM creatine vs control, 3 weeks, p<0.03",significantly higher
same,MTT reaction,"[2]; 10 mM creatine, p<0.02",significantly higher MTT reaction
same,MTT reaction,"[2]; 20 mM creatine, p<0.006",significantly higher MTT reaction
same,MTT conversion,"[2]; 20 mM creatine, 3 weeks vs 2 weeks, p<0.015",significantly lower MTT conversion
